Measurements: EPA's ToxValDB 9.5 (doi:10.2903/j.efsa.2010.1711)
Several values for one entry are separate records, joined by “and”; a condition that tells them apart may be missing. Equal values may be shown once.

How the values were obtained:
Aphidius rhopalosiphi = assay: LR50; higher = less toxic; conditions: acute; duration: 48 hours; mortality
Typhlodromus pyri = assay: LR50; higher = less toxic; conditions: acute; duration: 7 days; mortality
Daphnia magna = conditions: chronic/long-term; duration: 21 days; reproduction
Apis mellifera = conditions: acute; duration: 96 hours; oral; unspecified; mortality
Bibionidae = conditions: chronic/long-term; duration: 28 days; development
Tagia sp. = conditions: acute; duration: 14 days; mortality

CC(C)([CH2][Sn]([CH2]C(C)(C)c1ccccc1)([CH2]C(C)(C)c1ccccc1)[O][Sn]([CH2]C(C)(C)c1ccccc1)([CH2]C(C)(C)c1ccccc1)[CH2]C(C)(C)c1ccccc1)c1ccccc1 [Fenbutatin oxide]
LR50 (Aphidius rhopalosiphi): > 85.9 g/ha
LR50 (Typhlodromus pyri): 468 g/ha
NOEC (Daphnia magna): 0.004 mg/L
LC50 (Oncorhynchus mykiss; acute, duration: 96 hours, mortality): 1.14 ng/mL
NOEC (Oncorhynchus mykiss; chronic/long-term, duration: 62 days, growth): 0.0002 mg/L
LD50 (Apis mellifera): > 200 µg/piece
NOEC (Anas platyrhynchos; reproductive): 16.8 mg/kg-day
LC50 (Anas platyrhynchos; short-term, oral, feed, mortality): > 968 mg/kg-day
NOEC (Bibionidae): > 1000 mg/kg
LC50 (Tagia sp.): > 1000 mg/kg
NOAEC (Rattus norvegicus; acute, inhalation, mortality): 5.13 mg/kg-day
LD50 (Rattus norvegicus; acute, oral, F, mortality): > 3000 mg/kg-day
NOAEL (Rattus norvegicus; chronic, duration: 2 years, clinical signs): 5 mg/kg-day
NOAEL (Rattus norvegicus; reproduction developmental, body weight): 4.5 mg/kg-day and 10 mg/kg-day
LC50 (Colinus virginianus; acute, oral, diet, mortality): > 1610 mg/kg-day
LD50 (Colinus virginianus; acute, oral, mortality): > 2510 mg/kg-day
NOEC (Colinus virginianus; reproduction developmental): 14.4 mg/kg-day
